Tests used:
[1] = biological target: T1, Adenosine receptor A1 (Rattus norvegicus, UniProt P25099)
T1 sequence (P25099 whole entry): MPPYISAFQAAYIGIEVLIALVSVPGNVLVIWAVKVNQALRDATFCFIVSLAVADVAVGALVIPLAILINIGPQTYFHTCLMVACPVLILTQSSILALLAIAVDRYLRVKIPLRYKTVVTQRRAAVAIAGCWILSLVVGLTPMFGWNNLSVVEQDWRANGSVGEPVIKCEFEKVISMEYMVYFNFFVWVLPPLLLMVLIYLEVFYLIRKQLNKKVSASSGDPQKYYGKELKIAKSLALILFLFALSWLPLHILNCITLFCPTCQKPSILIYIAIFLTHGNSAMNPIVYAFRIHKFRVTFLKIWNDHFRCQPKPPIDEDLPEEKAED
Description: Binding affinity against adenosine A1 receptor in rat brain membranes using [3H]CHA as radioligand

[2] = biological target: T2, Adenosine A2 receptor (Rattus norvegicus, UniProt P29276+P30543)
Description: Binding affinity against adenosine A2 receptor in rat striatal membranes using [3H]NECA as radioligand

[3] = system: Rattus norvegicus; experiment: Dose producing 30% decrease of blood pressure in anesthetized rats (SHR); format: functional
[4] = system: Rattus norvegicus; experiment: Dose producing 10% decrease of heart rate in anesthetized rats (SHR); format: functional
[5] = biological target: T1, Adenosine receptor A1; experiment: Binding affinity against adenosine A1 receptor in rat brain membranes using [3H]-CHA; format: cell membranes
[6] = biological target: T2, Adenosine A2 receptor; experiment: Binding affinity against adenosine A2 receptor in rat striatal membranes using [3H]NECA; format: cell membranes, Striatum, Membrane

Compound | Ki [1] [nM] | Ki [2] [nM] | ED30 [3] [µg/kg] | ED10 [4] [µg/kg] | Ki [5] [nM] | Ki [6] [nM]
CCCCCCCCOCCC#Cc1nc(N)c2ncn([C@@H]3O[C@H](CO)[C@@H](O)[C@H]3O)c2n1 | 1500 | 307 | 9.16 | > 100 | – | –
CCCCCCC#Cc1nc(O)c2ncn(C3O[C@H](CO)[C@@H](O)[C@H]3O)c2n1 (some centres not stated) | > 567 | > 567 | > 100 | > 100 | – | –
CCCCCCC#Cc1nc(N)c2[nH]cnc2n1 | > 567 | > 567 | > 100 | > 100 | – | –
CCCCCCCC#Cc1nc(N)c2ncn([C@@H]3O[C@H](CO)[C@@H](O)[C@H]3O)c2n1 | 257 | 33.7 | 0.53 | > 100 | – | –
CCNC(=O)[C@H]1O[C@@H](n2cnc3c(N)nc(NCCc4ccc(CCC(=O)O)cc4)nc32)[C@H](O)[C@@H]1O [CGS-21680] | – | – | 0.83 | > 100 | – | –
CC(=O)c1nc(N)c2ncn(C3O[C@H](CO)[C@@H](O)[C@H]3O)c2n1 (some centres not stated) | > 567 | > 567 | 46.7 | 50.3 | – | –
CCC#Cc1nc(N)c2ncn([C@@H]3O[C@H](CO)[C@@H](O)[C@H]3O)c2n1 | 186 | 21.2 | 0.48 | 18.4 | – | –
Nc1nc(C#CCCO)nc2c1ncn2[C@@H]1O[C@H](CO)[C@@H](O)[C@H]1O | 81.4 | 40.1 | 2.53 | 15.3 | – | –
Nc1nc(C#CCO)nc2c1ncn2[C@@H]1O[C@H](CO)[C@@H](O)[C@H]1O | 10.1 | 20.5 | 0.95 | 1.19 | – | –
CCCCCC#Cc1nc(N)c2ncn([C@@H]3O[C@H](CO)[C@@H](O)[C@H]3O)c2n1 | 170 | 5.4 | 0.14 | > 100 | – | –
CCCCCCCCc1nc(N)c2ncn(C3O[C@H](CO)[C@@H](O)[C@H]3O)c2n1 (some centres not stated) | > 567 | > 567 | > 100 | > 100 | – | –
COc1cc(OC)cc(C(CNc2ncnc3c2ncn3[C@@H]2O[C@H](CO)[C@@H](O)[C@H]2O)c2ccccc2C)c1 (some centres not stated) | 103 | – | 12.1 | > 100 | – | –
CCOCCCC#Cc1nc(N)c2ncn([C@@H]3O[C@H](CO)[C@@H](O)[C@H]3O)c2n1 | 244 | 12.8 | 1.42 | > 100 | – | –
CCCCCCC#Cc1ncnc2c1ncn2C1O[C@H](CO)[C@@H](O)[C@H]1O (some centres not stated) | > 567 | > 567 | > 100 | > 100 | – | –
CCCCCCCCCCC#Cc1nc(N)c2ncn(C3O[C@H](CO)[C@@H](O)[C@H]3O)c2n1 (some centres not stated) | – | – | 2.05 | > 100 | 267 | 44.6
CCCCC#Cc1nc(N)c2ncn([C@@H]3O[C@H](CO)[C@@H](O)[C@H]3O)c2n1 | 126 | – | 0.11 | 66.9 | – | –
CCCCCC/C=C\c1nc(N)c2ncn(C3O[C@H](CO)[C@@H](O)[C@H]3O)c2n1 (some centres not stated) | > 567 | 150 | 5 | > 100 | – | –
CCCCOCC#Cc1nc(N)c2ncn([C@@H]3O[C@H](CO)[C@@H](O)[C@H]3O)c2n1 | 18.5 | 10.6 | 1.06 | 9.59 | – | –
C#Cc1nc(N)c2ncn(C3O[C@H](CO)[C@@H](O)[C@H]3O)c2n1 (some centres not stated) | 272 | 37.6 | 5.91 | 5.76 | – | –
CCCCCCC#Cc1nc(N)c2ncn([C@@H]3O[C@H](CO)[C@@H](O)[C@H]3O)c2n1 | 202 | 12.1 | 0.34 | > 100 | – | –
COCC#Cc1nc(N)c2ncn([C@@H]3O[C@H](CO)[C@@H](O)[C@H]3O)c2n1 | 38.1 | 88.1 | 23.8 | 44.2 | – | –
OC[C@H]1O[C@@H](n2cnc3c(NC4CCCC4)ncnc32)[C@H](O)[C@@H]1O [N6-CYCLOPENTYLADENOSINE] | – | 421 | 0.5 | 0.14 | – | –
C[Si](C)(C)C#Cc1nc(N)c2ncn([C@@H]3O[C@H](CO)[C@@H](O)[C@H]3O)c2n1 | 69.8 | 630 | 1.15 | > 100 | – | –
CCCCCCC#Cc1nc2c(N)ncnc2n1C1O[C@H](CO)[C@@H](O)[C@H]1O (some centres not stated) | > 567 | > 567 | > 100 | > 100 | – | –
CCCCCCCCC#Cc1nc(N)c2ncn([C@@H]3O[C@H](CO)[C@@H](O)[C@H]3O)c2n1 | 232 | 32.8 | 0.46 | > 100 | – | –
CCCC#Cc1nc(N)c2ncn([C@@H]3O[C@H](CO)[C@@H](O)[C@H]3O)c2n1 | 154 | 7.5 | 0.18 | 41.5 | – | –
Nc1nc(Nc2ccccc2)nc2c1ncn2[C@@H]1O[C@H](CO)[C@@H](O)[C@H]1O | – | 107 | 5.82 | > 100 | – | –
CCc1nc(N)c2ncn(C3O[C@H](CO)[C@@H](O)[C@H]3O)c2n1 (some centres not stated) | > 567 | > 567 | > 100 | > 100 | – | –
CCCOCCC#Cc1nc(N)c2ncn(C3O[C@H](CO)[C@@H](O)[C@H]3O)c2n1 (some centres not stated) | 128 | 10.2 | 1.1 | 79.9 | – | –
CCNC(=O)[C@H]1O[C@@H](n2cnc3c(N)ncnc32)[C@H](O)[C@@H]1O [NECA] | – | – | 0.19 | 0.35 | – | –
